Test results: patent US20220218710A1, “Inhibition of Neddylation for Treatment of MS” (The Regents of the University of California, priority 2019, published 2022)

System: experimental autoimmune encephalomyelitis (EAE)
Assay type: in vivo, C57BL/6 mice
Procedure: FIGS. 3A, 3B, and 3C. FIGS. 3A, 3B, and 3C depicts pevonedistat treatment effects in an MS animal model. FIG. 3A depicts the trial design: C57BL/6 mice were treated daily starting on Day−1 with either Pevonedistat (20 mg/kg) or placebo (n=10/group). The result shown here is one representative of two independent experiments. EAE was induced through active immunization with myelin oligodendrocyte (MOG) peptide 35-55 following standard protocols (triangles). Weights were taken on D−1, D7, and D14 (dots). Animals were scored daily. Mice were sacrificed and brain and spinal cords of were harbored on Day 16 at peak disease (n=4/group) (triangle). FIG. 3B depicts EAE severity: Diseases was assessed blinded using a […] scale from 0 to 5 (0=no symptoms, 5=death). Data shown here are from one representative of two experiments. FIG. 3C depicts mice weights over the course of the experiment. ****p-value<0.001, 2-way ANOVA test.
EAE induction and neddylation inhibition in mice. Four weeks old female C57BL/6 mice were used. All mice were housed in closed caging systems and provided with standard irradiated chow diet, acidified water ad libitum and housed under a 12-hour light cycle. Pevonedistat (MLN4924) (Chemietek Inc., Indianapolis, Ind.) was dissolved in DMSO and further diluted in 30% of PEG300 and 5% of TWEEN in ddH2O at a concentration of 40 mg/mL and stored at −20° C. 7-8 week old mice were treated daily with 20 mg/kg Pevonedistat or vehicle (same concentration of buffer without Pevonedistat) starting at day −1. Mice were immunized subcutaneously on day 0 with 100 μg MOG35-55 emulsified in incomplete Freund's adjuvant supplemented with Mycobacterium tuberculosis followed by two intraperitoneal injections on Day 0 and Day 2 with 300 ng pertussis each. […] Mice were scored daily on a […] scale in a blinded fashion as follows: 0, no deficit; 1, limp tail only; 2, limp tail and hind limb weakness; 3, complete hind limb paralysis; 4, complete hind limb paralysis and partial/complete forelimb paralysis; 5, death.
Inhibition of neddylation reduces EAE. […] Pevonedistat (MLN4924), which is a small molecule and first-in-class inhibitor of NAE was next used in experimental autoimmune encephalomyelitis (EAE), an established MS mouse model driven by a strong CD4+ T cell response (FIG. 3A). Although Pevonedistat was originally tested as a cancer therapy, recent studies proposed this agent as a potential therapeutic target for immune-related diseases due to the important role of neddylation in immune cell functions.

[1] = 20 mg/kg daily, EAE mice at peak disease

NS(=O)(=O)OC[C@@H]1C[C@@H](n2ccc3c(N[C@H]4CCc5ccccc54)ncnc32)C[C@@H]1O [Pevonedistat, pevonedistat]
EAE severity (10-point scale from 0 to 5, scored daily, blinded) (20 mg/kg daily from day -1, compared to placebo-treated group, FIG. 3B): significantly reduced EAE severity
density of CD3+ T cells in spinal cord [1]: decreased densities
density of Iba1+ myeloid cells in spinal cord [1]: decreased densities
spinal cord inflammation (inflammatory infiltrates) (20 mg/kg daily, EAE spinal cords at peak disease, vs placebo): dramatic reduction in spinal cord inflammation
demyelination, histological assessment of CNS tissue (20 mg/kg daily, at peak disease (Day 16)): significant reduction of demyelination
mice weights during the disease course (20 mg/kg daily, placebo group had significant weight loss at peak of disease, FIG. 3C): steady weight
